The target in assay [1] is T1, Brain Acetylcholinesterase (Rattus norvegicus, UniProt P37136).
T1 construct: corpora striata dissected free, weighed and homogenized in 19 volumes; from tissue; host or cells: rat corpora striata homogenate (male Wistar rats)
Briefly: In Vitro Inhibition of Acetylcholinesterase Activity in Rat Striatum (modified Ellman method). The settings on record: rat striatum homogenate, read-out: % Inhibition @ Dose. Type of assay: biochemical. The source says:
Cholinesterases are found throughout the body, both in the brain and in serum. However, only brain acetylcholinesterase (AChE) distribution is correlated with central cholinergic innervation. […] We have determined in vitro inhibition of acetylcholinesterase activity in rat striatum according to the method described below.
In Vitro Inhibition of Acetylcholinesterase Activity in Rat Striatum
Acetylcholinesterase (AChE), which is sometimes called true or specific cholinesterase, is found in nerve cells, skeletal muscle, smooth muscle, various glands and red blood cells. AChE may be distinguished from other cholinesterases by substrate and inhibitor specificities and by regional distribution.
It is generally accepted that the physiological role of AChE is the rapid hydrolysis and inactivation of acetylcholine. […]
• A. Reagents- • 1. […] If active, IC₅₀ values are determined from the inhibitory activity of subsequent concentrations. • B. Tissue Preparation - Male Wistar rats are decapitated, brains rapidly removed, corpora striata dissected free, weighed and homogenized in 19 volumes (approximately 7 mg protein/ml) of 0.05 M phosphate buffer, pH 7.2, using a Potter-Elvehjem homogenizer. […] Assay Enzyme activity is measured with the Beckman DU-50 spectrophotometer. […] This program also calculates the rate of absorbance change for each cuvette. […]
For orientation: DTNB colorimetry detects thiols as they appear.

Assay [2] relates to mice. Briefly: Dark Avoidance Assay (reversal of scopolamine-induced memory deficit). Type of assay: in vivo. The following applies: s.c. Here is the method: In this assay mice are tested for their ability to remember an unpleasant stimulus for a period of 24 hours. A mouse is placed in a chamber that contains a dark compartment; a strong incandescent light drives it to the dark compartment, where an electric shock is administered through metal plates on the floor. The animal is removed from the testing apparatus and tested again, 24 hours later, for the ability to remember the electric shock.
If scopolamine, an anticholinergic that is known to cause memory impairment, is administered before an animal's initial exposure to the test chamber, the animal re-enters the dark compartment shortly after being placed in the test chamber 24 hours later. This effect of scopolamine is blocked by an active test compound, resulting in a greater interval before re-entry into the dark compartment.
The results for an active compound are expressed as the percent of a group of animals in which the effect of scopolamine is blocked, as manifested by an increased interval between being placed in the test chamber and re-entering the dark compartment.

T1 sequence (P37136 32-614): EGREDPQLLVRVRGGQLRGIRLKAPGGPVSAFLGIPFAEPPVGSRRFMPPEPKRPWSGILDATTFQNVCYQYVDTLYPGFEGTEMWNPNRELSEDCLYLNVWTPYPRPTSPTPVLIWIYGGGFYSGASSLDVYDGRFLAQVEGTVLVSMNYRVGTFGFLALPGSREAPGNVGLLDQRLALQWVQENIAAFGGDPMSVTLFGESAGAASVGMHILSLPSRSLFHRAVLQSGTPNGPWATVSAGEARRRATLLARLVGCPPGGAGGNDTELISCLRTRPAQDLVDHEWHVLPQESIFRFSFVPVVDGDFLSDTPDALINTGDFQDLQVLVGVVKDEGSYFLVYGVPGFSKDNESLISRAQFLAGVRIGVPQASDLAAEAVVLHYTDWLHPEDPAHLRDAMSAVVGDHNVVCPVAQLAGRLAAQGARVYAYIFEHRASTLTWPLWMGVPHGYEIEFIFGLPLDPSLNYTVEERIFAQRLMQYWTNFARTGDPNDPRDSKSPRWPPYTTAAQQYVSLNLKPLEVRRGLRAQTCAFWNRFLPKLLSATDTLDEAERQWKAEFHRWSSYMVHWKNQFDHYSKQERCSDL

Turning to `CN1CCC2(C)c3cc(O)ccc3N(C)C12` (stereo not shown) [Eseroline], the inhibition (usually the drop in the measured response relative to a control, in per cent) at 6.4 µM in assay [1] (6.4 µM) turned out to be 50%.

Turning to `CCCC(c1ccncc1)n1ccc2ccccc21` (stereo not shown) [1-[1-(4-pyridinyl)-butyl]-1H-indole, 1-[1-(4-Pyridinyl)butyl]-1H-indole], in assay [2] (dose 0.3 mg/kg of body weight), the “% of Animals with Scopolamine-Induced Memory Deficit Reversal” value (from here on “% of Animals”) is listed as 20%.

Turning to `c1ccc2c(c1)ccn2Cc1ccncc1` [1-(4-pyridinylmethyl)-1H-indole, 1-(4-Pyridinylmethyl)-1H-indole], the “% of Animals” value in assay [2] (dose 0.3 mg/kg of body weight) worked out at 33%; in assay [2] (dose 1.0 mg/kg of body weight), 20%.

Take `CC[C@@H]1C(=O)OC[C@@H]1Cc1cncn1C` [Pilocarpine]: the “% of Animals” value in assay [2] (dose 5.0 mg/kg of body weight) amounted to 13%.

Take `Oc1ccc2c(ccn2Cc2ccncc2)c1` [1-(4-pyridinylmethyl)-1H-indol-5-ol, 1-(4-Pyridinylmethyl)-1H-indol-5-ol]: the inhibition at 100 µM in assay [1] (100 µM) came out at 24%.

In the case of `Nc1c2c(nc3ccccc13)CCCC2` [Tacrine], in assay [2] (dose 0.63 mg/kg of body weight), the “% of Animals” value came to 13%.
